The subject of one assay is HCT15. Briefly: MTS assay, cytotoxicity on colorectal cancer cell line HCT15. The class given is cell-based. As to conditions: Homo sapiens, HCT-15, RON Δ160, KRAS G13D, 72 hours. The protocol: (§1) MTS assay was performed to compare cytotoxicity of the compounds of Example 1, Example 2, Example 3, Example 4, Example 5, Example 6, and positive control 1 on a colorectal cancer cell line, and a cell death rate of the colorectal cancer cell line was analyzed to compare anticancer activity of the compounds.
(§2) The MTS assay was performed by seeding each colorectal cell line in a 96-well plate at 1,000 cells per well, and after 24 hours, performing treatment with the compounds of Examples 1 to 6 and positive control 1 at various concentrations (0.000001 μM to 10 μM) in 100 μL of 10% FBS-RPMI medium (WELGENE Inc.) per well. The cells were incubated for 72 hours. Then, 20 μL of MTS solution (Promega) was added thereto, and the cells were incubated for 2 hours. Then, the absorbance was measured at 490 nm. The IC50 values for the compounds of Examples 1 to 6 and positive control 1 were calculated using GraphPad Prism™ 5 to investigate cytotoxicity.
On the technique in general: Tetrazolium dyes change colour on reduction, which living cells bring about.

The next assay has as its system HCT8. In words: MTS assay, cytotoxicity on colorectal cancer cell line HCT8. It is filed as cell-based. As to conditions: Homo sapiens, HCT-8, RON wt, KRAS G13D, 72 hours. How it is done:
as §1, §2

Another assay deals with SW480. Briefly: MTS assay, cytotoxicity on colorectal cancer cell line SW480. As to conditions: Homo sapiens, RON Δ155, KRAS G12V, 72 hours. It is filed as cell-based. The protocol: as §1, §2
For another assay, the system named is SNUC2A. Briefly: MTS assay, cytotoxicity on colorectal cancer cell line SNUC2A. The class given is cell-based. As to conditions: RON mutation negative, KRAS G12D, 72 hours. The protocol: as §1, §2
The next assay deals with DLD1. Briefly: MTS assay, cytotoxicity on colorectal cancer cell line DLD1. It is filed as cell-based. As to conditions: Homo sapiens, DLD-1, RON wt, KRAS G13D, 72 hours. How it is done:
as §1, §2

Assay [1] relates to T84. In words: MTS assay, cytotoxicity on colorectal cancer cell line T84. The class given is cell-based. As to conditions: Homo sapiens, RON Δ165, KRAS G13D, 72 hours. How it is done: as §1, §2
Assay [2] has as its system SW620. Briefly: MTS assay, cytotoxicity on colorectal cancer cell line SW620. It is filed as cell-based. As to conditions: Homo sapiens, SW-620, RON Δ155, KRAS G12V, 72 hours. The protocol:
as §1, §2

In assay [3] the test system is colorectal cancer cell line. In words: MTS assay, summary over the colorectal cancer cell lines. It is filed as cell-based. As to conditions: summary in words of Table 1. How it is done: as §1, §2
Assay [4] has as its system SW620. In words: Cell death induction, trypan blue cell counting, SW620. It is filed as cell-based, human. As to conditions: 1 μM, 48 hours; for cell death rate: SW620 (KRAS G12V/mRON Δ155), FIG. 2. The protocol:
(§3) Based on the results above, to identify the cell death-inducing ability of the compounds of Example 1 and positive control 1, which are representative materials, preparation was performed by seeding respective colorectal cancer cell lines SNU-[…], HCT8, T84, and SW620 onto 60-mm plates at 3×10^5 cells, and then incubation was performed for 24 hours. Thereafter, treatment with each of Example 1 and positive control 1 was performed at 1μM and incubation was performed for 48 hours. In addition, preparation was performed by seeding the cell line SW620 onto a 60-mm plate at 3×10^5 cells, and then incubation was performed for 24 hours. Thereafter, treatment with each of Example 1, positive control 1, positive control 2, and positive control 3 was performed at 1 μM. After 48 hours, the cells and cell suspensions were collected by treatment with trypsin, resuspended in 1× PBS and stained using a trypan blue solution (Sigma, cat# T8154). The stained cells were counted using a hemocytometer. Cell counting was repeated, and the mean and the standard deviation were calculated.

In assay [5] the test system is T84. Briefly: Cell death induction, trypan blue cell counting, T84. As to conditions: T84 with a RON mutation; 1 μM; 48 hours; FIG. 1. The class given is cell-based. How it is done: as §3, with “hours.” for “hours. In addition, preparation was performed by seeding the cell line SW620 onto a 60-mm plate at 3×10^5 cells, and then incubation was performed for 24 hours. Thereafter, treatment with each of Example 1, positive control 1, positive control 2, and positive control 3 was performed at 1 μM.”

Assay [6] has as its system HCT8 (KRAS G13D/pTyr-wtRON(+)). In words: Cell line HCT8-transplanted mouse model. It is filed as in vivo, BALB/c nude mice. As to conditions: 10 mg/kg, oral, once a day for 4 weeks. How it is done:
5-Week-old female BALB/c nude mice were purchased and acclimatized for 1 week. Then, human colorectal cancer patient-derived cell line SW620 (KRAS
G12V/mRON Δ155) at 5×10^6 cells/mouse was injected subcutaneously (100 μL) into the right dorsal side of the mice. The compound of Example 1 was orally administered when the tumor reached a size of about 100 mm^3. The drug was administered once a day for 4 weeks, and tumor size and mouse body weight were measured twice a week. After completion of the drug administration, the experimental animals were euthanized, and then the tumors were extracted and weighed for comparative analysis.
A portion of the extracted tumor tissue was fixed in 10% formalin and processed into a paraffin block. Then, the block was made into sections. Staining of the slide was performed through immunochemical staining. Another portion of the extracted tumor tissue was subjected to lysis, and then Western blotting was used to identify changes in expression of respective proteins.
The experiment was conducted in the same method as the procedure of Experimental Example 3, except that human colorectal cancer patient-derived cell line HCT8 (KRAS G13D/pTyr-wtRON(+)) was used in place of the human colorectal cancer patient-derived cell line SW620 (KRAS G12V/mRON Δ155), and the respective compounds of Example 1, positive control 1, and positive control 2 were administered.

Where a name gives a salt, the structure may show the parent alone. Some results are limits rather than exact numbers.

In general, IC50 refers to the concentration at which inhibition is half-maximal.

Take `CCOc1ccn(-c2ccccc2)c(=O)c1C(=O)Nc1ccc(Oc2ccnc3cc(-c4ccc(CNCCOC)cn4)sc23)c(F)c1` [Example 2, 4-ethoxy-N-(3-fluoro-4-{[2-(5-{[(2-methoxyethyl)amino]methyl}pyridine-2-yl)thieno[3,2-b]pyridine-7-yl]oxy}phenyl)-2-oxo-1-phenyl-1,2-dihydropyridine-3-carboxamide hydrochloride]: the IC50 came to 220 nM in the assay on HCT15; 260 nM with HCT8; 1250 nM with SW480; 4440 nM in the assay with SNUC2A; 210 nM in the assay on DLD1; 210 nM with T84 [1]. For the same compound, the IC50 in the assay on SW620 [2] is 370 nM.

On to `CCOc1ccn(-c2ccccc2)c(=O)c1C(=O)Nc1ccc(Oc2ccnc3cc(-c4ccc(CN5CCN(C)CC5)cn4)sc23)c(F)c1` [Example 3, 4-ethoxy-N-{3-fluoro-4-[(2-{5-[(4-methylpiperazin-1-yl)methyl]pyridin-2-yl}thieno[3,2-b]pyridin-7-yl)oxy]phenyl}-2-oxo-1-phenyl-1,2-dihydropyridine-3-carboxamide hydrochloride], for which the IC50 was found to be 390 nM in the assay on HCT15; 480 nM with HCT8; 660 nM in the assay on SW480; 4600 nM in the assay with SNUC2A; 300 nM in the assay on DLD1; 220 nM in the assay on T84 [1]. In addition, the IC50 with SW620 [2] amounted to 260 nM.

Regarding `Cn1cnc(-c2cc3nccc(Oc4ccc(NC(=O)c5c6c(cn(-c7ccc(F)cc7)c5=O)CCO6)cc4F)c3s2)c1` [Example 4], the IC50 is 1270 nM in the assay on HCT15; 1200 nM with HCT8; 670 nM in the assay on SW480; 7530 nM with SNUC2A; 660 nM in the assay with DLD1; 170 nM in the assay with T84 [1]. Moreover, in the assay on SW620 [2], the IC50 is above 10000 nM. For the same compound, the “efficiency / response in MTS assay over the cell lines” value in assay [3] was “high efficiency in the cell lines (HCT8 and DLD-1)”.

In the case of `COc1cc2c(Oc3ccc(NC(=O)c4c5c(cn(-c6ccc(F)cc6)c4=O)CCO5)cc3F)ccnc2cc1OCCN1CCOCC1` [Example 5, N-(3-fluoro-4-((6-methoxy-7-(2-morpholinoethoxy)quinolin-4-yl)oxy)phenyl)-5-(4-fluorophenyl)-6-oxo-2,3,5,6-tetrahydrofuro[3,2-c]pyridine-7-carboxamide], the IC50 was found to be 390 nM in the assay on HCT15; 780 nM in the assay with HCT8; 110 nM in the assay with SW480; 3820 nM in the assay on SNUC2A; 230 nM in the assay on DLD1; 810 nM in the assay with T84 [1]. Moreover, in the assay with SW620 [2], half-maximal inhibition (IC50) was put at 1000 nM.

`COc1cc2c(Oc3ccc(NC(=O)c4c5c(cn(-c6ccc(F)cc6)c4=O)CCO5)cc3F)ccnc2cc1OCCCN1CC(C#N)C1` [Example 6, N-(4-((7-(3-(3-cyanoazetidine-1-yl)propoxy)-6-methoxyquinoline-4-yl)oxy)-3-fluorophenyl)-5-(4-fluorophenyl)-6-oxo-2,3,5,6-tetrahydrofuro[3,2-c]pyridine-7-carboxamide]: the IC50 in the assay with HCT15 came to 140 nM; with HCT8 it was 330 nM; in the assay with SW480, 320 nM; with SNUC2A it was 1320 nM; with DLD1 it was 170 nM; with T84 [1], 200 nM. Further, the IC50 with SW620 [2] amounted to 110 nM.

Turning to `CCOc1ccn(-c2ccc(F)cc2)c(=O)c1C(=O)Nc1ccc(Oc2ccnc(N)c2Cl)c(F)c1` [Positive control 1, N-{4-[(2-amino-3-chloro-4-pyridinyl)oxy]-3-fluorophenyl}-4-ethoxy-1-(4-fluorophenyl)-2-oxo-1,2-dihydro-3-pyridinecarboxamide, reference compound], the IC50 with HCT15 was 3240 nM; in the assay with HCT8 it was 7320 nM; in the assay on SW480, 3540 nM; in the assay on SNUC2A, above 10000 nM; with DLD1, 4720 nM; with T84 [1], 8400 nM. This compound showed an IC50 in the assay with SW620 [2] of 5000 nM. Also, in assay [3], the “efficiency / response in MTS assay over the cell lines” value was “high IC50 values in most cell lines”. In the assay on SW620 [4], the cell death rate entry was “cell death was not induced”. Further, the “cell death induction efficacy” value is listed as “little response” with SW620 [4] (SW620 with a RON mutation, FIG. 1) and “little response” in the assay on T84 [5]. In addition, the “Tumor growth inhibition (TGI, %)” value in assay [6] is −7.5 ± 36.3%.

As to `C[C@@H](Oc1cc(-c2cnn(C3CCNCC3)c2)cnc1N)c1c(Cl)ccc(F)c1Cl` [Positive control 2, reference compound], the cell death rate result in the assay with SW620 [4] is given as “cell death was not induced”. In addition, the “Tumor growth inhibition (TGI, %)” value in assay [6] was found to be 23.2 ± 7.8%.

As for `COc1cc2nccc(Oc3ccc(NC(=O)C4(C(=O)Nc5ccc(F)cc5)CC4)cc3)c2cc1OC` [Positive control 3, N-(4-{[6,7-bis(methyloxy)quinoline-4-yl]oxy}phenyl)-N′-(4-fluorophenyl)cyclopropane-1,1-dicarboxamide], in the assay on SW620 [4], the cell death rate entry is “cell death was not induced”.
